Assay results published in patent US20180194762A1 (Pharmacyclics LLC, priority 2017, published 2018).
Read-outs that look alike come from different tables or passages of the source.

How the values were obtained:
Format in all cases: biochemical
[1] = target: T1, panel of kinases (Homo sapiens, UniProt P51813); assay: Inhibition of a panel of kinases (in vitro HotSpot kinase assay, 33P-ATP, 1 μM ATP), other kinases; conditions: BMX wild-type, read-out: BMX-WT IC50
T1 sequence (P51813 1-675): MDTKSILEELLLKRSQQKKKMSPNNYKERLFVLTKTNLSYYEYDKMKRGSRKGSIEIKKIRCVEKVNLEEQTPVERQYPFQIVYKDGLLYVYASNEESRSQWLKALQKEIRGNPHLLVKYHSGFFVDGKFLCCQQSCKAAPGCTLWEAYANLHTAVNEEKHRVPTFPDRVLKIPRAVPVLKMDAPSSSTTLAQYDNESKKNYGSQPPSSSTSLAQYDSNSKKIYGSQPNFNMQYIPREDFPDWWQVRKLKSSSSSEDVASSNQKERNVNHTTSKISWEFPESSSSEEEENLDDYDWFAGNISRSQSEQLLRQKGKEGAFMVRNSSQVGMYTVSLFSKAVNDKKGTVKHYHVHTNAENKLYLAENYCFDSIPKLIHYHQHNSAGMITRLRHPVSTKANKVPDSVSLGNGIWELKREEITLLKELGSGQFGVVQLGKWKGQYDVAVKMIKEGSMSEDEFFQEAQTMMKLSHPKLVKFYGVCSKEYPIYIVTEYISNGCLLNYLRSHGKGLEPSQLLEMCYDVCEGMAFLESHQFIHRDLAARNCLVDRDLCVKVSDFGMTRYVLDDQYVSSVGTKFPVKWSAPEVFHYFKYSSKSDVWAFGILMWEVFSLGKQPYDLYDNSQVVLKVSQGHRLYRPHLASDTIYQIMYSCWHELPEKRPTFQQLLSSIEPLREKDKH
Summary of the method: (§1)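 Radiometric read-out: 33P transfer to a suitable substrate by each purified enzyme, ATP at 1 μM. Values are degree of inhibition.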

[2] = target: T2, Btk (Homo sapiens, UniProt Q06187); assay: Btk in vitro inhibitory activity (one of Method A TR-FRET, Method B electrophoretic mobility shift, Method C radiometric filter binding)
T2 construct: purified from insect cells as a full-length construct containing a N-terminal 6X-His tag; His6 (N); made in house; host or cells: insect cells (Method C)
Summary of the method: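 Three alternative formats were used. A radiometric filter-binding read used 8 nM full-length His-BTK with 0.2 mg/mL poly(Glu-Tyr) 4:1 (C); microfluidic separation of 1 μM FAM-peptide by 1 nM BTK gave IC50 from 12-point curves (B); TR-FRET at Km ATP, 0.5 nM Btk, gave Ki(app)-derived IC50 (A).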

[3] = target: T3, TEC (Homo sapiens, UniProt P42680); assay: Inhibition of a panel of kinases (in vitro HotSpot kinase assay, 33P-ATP, 1 μM ATP); conditions: for IC50: HotSpot kinase assay, 1 μM ATP; for TEC/Btk: ratio of TEC IC50 to Btk IC50 (selectivity)
T3 sequence (P42680 1-631): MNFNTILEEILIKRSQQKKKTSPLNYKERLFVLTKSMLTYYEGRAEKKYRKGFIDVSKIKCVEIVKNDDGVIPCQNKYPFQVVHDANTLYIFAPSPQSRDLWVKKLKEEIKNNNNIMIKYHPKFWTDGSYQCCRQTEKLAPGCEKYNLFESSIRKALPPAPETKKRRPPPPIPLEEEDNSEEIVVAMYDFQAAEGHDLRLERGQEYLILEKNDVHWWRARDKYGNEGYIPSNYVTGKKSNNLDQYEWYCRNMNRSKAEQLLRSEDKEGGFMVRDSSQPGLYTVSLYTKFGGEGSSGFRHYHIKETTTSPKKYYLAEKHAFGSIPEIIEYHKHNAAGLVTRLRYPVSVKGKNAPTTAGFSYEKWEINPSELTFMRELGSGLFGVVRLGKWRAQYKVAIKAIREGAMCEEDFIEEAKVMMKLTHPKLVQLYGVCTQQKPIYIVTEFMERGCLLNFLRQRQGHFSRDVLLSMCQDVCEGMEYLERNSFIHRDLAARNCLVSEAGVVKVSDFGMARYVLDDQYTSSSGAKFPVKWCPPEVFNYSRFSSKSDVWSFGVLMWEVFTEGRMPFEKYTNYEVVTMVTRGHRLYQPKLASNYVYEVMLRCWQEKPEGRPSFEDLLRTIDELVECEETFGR
Summary of the method: as §1

[4] = wild-type Btk, read-out: Btk-WT IC50
[5] = method is one of A, B or C, not stated which, read-out: IC50 values against Btk

T2 sequence (Q06187 whole entry): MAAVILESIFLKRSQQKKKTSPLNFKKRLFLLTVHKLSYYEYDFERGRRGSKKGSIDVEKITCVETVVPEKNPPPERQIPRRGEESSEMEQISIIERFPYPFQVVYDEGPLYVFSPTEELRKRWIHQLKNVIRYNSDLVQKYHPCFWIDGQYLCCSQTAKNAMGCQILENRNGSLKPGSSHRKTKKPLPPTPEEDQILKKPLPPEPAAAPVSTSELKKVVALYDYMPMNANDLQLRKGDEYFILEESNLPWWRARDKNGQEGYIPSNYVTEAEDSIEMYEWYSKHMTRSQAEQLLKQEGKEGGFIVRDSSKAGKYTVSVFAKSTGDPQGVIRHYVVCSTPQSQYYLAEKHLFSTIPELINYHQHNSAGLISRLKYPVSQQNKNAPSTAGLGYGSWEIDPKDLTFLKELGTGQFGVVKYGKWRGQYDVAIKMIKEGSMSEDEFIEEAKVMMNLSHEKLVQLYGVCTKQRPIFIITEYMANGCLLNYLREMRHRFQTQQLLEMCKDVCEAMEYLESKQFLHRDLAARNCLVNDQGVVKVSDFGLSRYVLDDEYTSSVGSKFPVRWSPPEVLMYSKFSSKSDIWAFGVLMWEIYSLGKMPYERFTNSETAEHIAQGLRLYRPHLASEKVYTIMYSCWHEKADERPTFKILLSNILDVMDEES

| IC50 [1] [nM] | IC50 [2, 4] [nM] | IC50 [3] [nM] | TEC/Btk [3] | IC50 [2, 5] [nM] | Compound |
| --- | --- | --- | --- | --- | --- |
| 912 | 225 | 1320 | 6 |  | C[C@H]1CC[C@@H](Nc2n[nH]c3nccc(-c4ccc(CNC(=O)c5cc(C(C)(C)C)on5)c(F)c4)c23)CN1 [Example 144, 5-tert-butyl-N-{[2-fluoro-4-(3-{[(3R,6S)-6-methylpiperidin-3-yl]amino}-1H-pyrazolo[3,4-b]pyridin-4-yl)phenyl]methyl}-1,2-oxazole-3-carboxamide] |
| 1040 | 1.93 | 1060 | 549 | < 10 | C[C@H]1CC[C@@H](Nc2n[nH]c3nccc(-c4ccc(CNC(=O)c5cc(C(C)(C)C)on5)c(F)c4)c23)CN1C(=O)N(C)C [Example 145, (2S,5R)-5-{[4-(4-{[(5-tert-butyl-1,2-oxazol-3-yl)formamido]methyl}-3-fluorophenyl)-1H-pyrazolo[3,4-b]pyridin-3-yl]amino}-N,N,2-trimethylpiperidine-1-carboxamide] |
| 21 | 0.202 | 47 | 234 | < 10 | C=CC(=O)N1C[C@H](Nc2n[nH]c3nccc(-c4ccc(CNC(=O)c5cc(C(C)(C)C)on5)c(F)c4)c23)CC[C@@H]1C [Example 146, 5-tert-butyl-N-{[2-fluoro-4-(3-{[(3R,6S)-6-methyl-1-(prop-2-enoyl)piperidin-3-yl]amino}-1H-pyrazolo[3,4-b]pyridin-4-yl)phenyl]methyl}-1,2-oxazole-3-carboxamide] |
| 5530 | 84.4 | > 10000 | >100 |  | C[C@H]1CC[C@@H](Nc2n[nH]c3nccc(-c4ccc(CNC(=O)c5nc(C(C)(C)C)no5)c(F)c4)c23)CN1 [Example 147, 3-tert-butyl-N-{[2-fluoro-4-(3-{[(3R,6S)-6-methylpiperidin-3-yl]amino}-1H-pyrazolo[3,4-b]pyridin-4-yl)phenyl]methyl}-1,2,4-oxadiazole-5-carboxamide] |
| 12 | 0.0924 | 28 | 305 | < 10 | C=CC(=O)N1C[C@H](Nc2n[nH]c3nccc(-c4ccc(CNC(=O)c5nc(C(C)(C)C)no5)c(F)c4)c23)CC[C@@H]1C [Example 148, 3-tert-butyl-N-{[2-fluoro-4-(3-{[(3R,6S)-6-methyl-1-(prop-2-enoyl)piperidin-3-yl]amino}-1H-pyrazolo[3,4-b]pyridin-4-yl)phenyl]methyl}-1,2,4-oxadiazole-5-carboxamide] |
| > 10000 | 739 | > 10000 | >100 |  | CC1(C)Cc2cc(C(=O)NCc3ccc(-c4ccnc5[nH]nc(N[C@@H]6CCNC6)c45)cc3F)[nH]c2C1 [Example 149, N-{[2-fluoro-4-(3-{[(3R)-pyrrolidin-3-yl]amino}-1H-pyrazolo[3,4-b]pyridin-4-yl)phenyl]methyl}-5,5-dimethyl-1H,4H,5H,6H-cyclopenta[b]pyrrole-2-carboxamide] |
| > 10000 | 35.3 | > 10000 | >100 |  | CC(C)(C)c1ccc(C(=O)Nc2cccc(-c3ccnc4[nH]nc(N[C@@H]5CCNC5)c34)c2CO)cc1 [Example 150, 4-tert-butyl-N-[2-(hydroxymethyl)-3-(3-{[(3R)-pyrrolidin-3-yl]amino}-1H-pyrazolo[3,4-b]pyridin-4-yl)phenyl]benzamide] |
| 8120 | 21.7 | 8270 |  |  | CC(C)(C)c1nc(C(=O)NCc2ccc(-c3ccnc4[nH]nc(N[C@H]5CC[C@H](N)CC5)c34)cc2F)no1 [Example 151, 5-tert-butyl-N-{[2-fluoro-4-(3-{[(1r,4r)-4-aminocyclohexyl]amino}-1H-pyrazolo[3,4-b]pyridin-4-yl)phenyl]methyl}-1,2,4-oxadiazole-3-carboxamide] |
| 496 | 3.41 | 2680 |  | < 10 | C=CC(=O)N[C@H]1CC[C@H](Nc2n[nH]c3nccc(-c4ccc(CNC(=O)c5noc(C(C)(C)C)n5)c(F)c4)c23)CC1 [Example 152, 5-tert-butyl-N-{[2-fluoro-4-(3-{[(1r,4r)-4-(prop-2-enamido)cyclohexyl]amino}-1H-pyrazolo[3,4-b]pyridin-4-yl)phenyl]methyl}-1,2,4-oxadiazole-3-carboxamide] |
| 2000 | 18.9 | 3200 | 169 |  | CC(C)(C)c1nc(C(=O)NCc2ccc(-c3ccnc4[nH]nc(N[C@H]5CC[C@@H](N)CC5)c34)cc2F)no1 [Example 153, 5-tert-butyl-N-{[2-fluoro-4-(3-{[(1s,4s)-4-aminocyclohexyl]amino}-1H-pyrazolo[3,4-b]pyridin-4-yl)phenyl]methyl}-1,2,4-oxadiazole-3-carboxamide] |
| 229 | 0.237 | 409 | 1726 | < 10 | C=CC(=O)N[C@H]1CC[C@@H](Nc2n[nH]c3nccc(-c4ccc(CNC(=O)c5noc(C(C)(C)C)n5)c(F)c4)c23)CC1 [Example 154, 5-tert-butyl-N-{[2-fluoro-4-(3-{[(1s,4s)-4-(prop-2-enamido)cyclohexyl]amino}-1H-pyrazolo[3,4-b]pyridin-4-yl)phenyl]methyl}-1,2,4-oxadiazole-3-carboxamide] |
| > 10000 | > 10000 | > 10000 |  |  | CC(C)(C)c1nc(NC(=O)Nc2ccc(-c3ccnc4[nH]nc(N[C@@H]5CCNC5)c34)cc2F)no1 [Example 155, 3-(5-tert-butyl-1,2,4-oxadiazol-3-yl)-1-[2-fluoro-4-(3-{[(3R)-pyrrolidin-3-yl]amino}-1H-pyrazolo[3,4-b]pyridin-4-yl)phenyl]urea] |
| 111 | 639 | 407 | 1 |  | C=CC(=O)N1CC[C@@H](Nc2n[nH]c3nccc(-c4ccc(NC(=O)Nc5noc(C(C)(C)C)n5)c(F)c4)c23)C1 [Example 156, 3-(5-tert-butyl-1,2,4-oxadiazol-3-yl)-1-[2-fluoro-4-(3-{[(3R)-1-(prop-2-enoyl)pyrrolidin-3-yl]amino}-1H-pyrazolo[3,4-b]pyridin-4-yl)phenyl]urea] |
| > 10000 | > 10000 | > 10000 |  |  | Cn1c(C(=O)NCc2ccc(-c3ccnc4[nH]nc(N[C@@H]5CCNC5)c34)cc2F)cc2c1CC(C)(C)C2 [Example 157, N-{[2-fluoro-4-(3-{[(3R)-pyrrolidin-3-yl]amino}-1H-pyrazolo[3,4-b]pyridin-4-yl)phenyl]methyl}-1,5,5-trimethyl-1H,4H,5H,6H-cyclopenta[b]pyrrole-2-carboxamide] |
| 170 | 7.71 | 394 | 51 | < 10 | C=CC(=O)N1CC[C@@H](Nc2n[nH]c3nccc(-c4ccc(CNC(=O)c5cc6c(n5C)CC(C)(C)C6)c(F)c4)c23)C1 [Example 158, N-{[2-fluoro-4-(3-{[(3R)-1-(prop-2-enoyl)pyrrolidin-3-yl]amino}-1H-pyrazolo[3,4-b]pyridin-4-yl)phenyl]methyl}-1,5,5-trimethyl-1H,4H,5H,6H-cyclopenta[b]pyrrole-2-carboxamide] |
